Experiments:
Cell viability XTT assay = assay type: cell-based; settings: rat, PC12 cells, read-out: Viability of treated cells relative to untreated control
PC12 cells = experiment: Cell viability XTT assay; assay type: cell-based; settings: PC12, up to 10 μM, 3 days
ACK1 = ACK1 (Homo sapiens, UniProt Q07912); experiment: ProQinase radiometric kinase panel; settings: mean of 2 exp.
Aurora-B = Aurora-B (Homo sapiens, UniProt Q96GD4); experiment: ProQinase radiometric kinase panel; settings: mean of 2 exp.
AXL = AXL (Homo sapiens, UniProt P30530); experiment: ProQinase radiometric kinase panel; settings: mean of 2 exp.
Sequence of AXL (P30530 26-894): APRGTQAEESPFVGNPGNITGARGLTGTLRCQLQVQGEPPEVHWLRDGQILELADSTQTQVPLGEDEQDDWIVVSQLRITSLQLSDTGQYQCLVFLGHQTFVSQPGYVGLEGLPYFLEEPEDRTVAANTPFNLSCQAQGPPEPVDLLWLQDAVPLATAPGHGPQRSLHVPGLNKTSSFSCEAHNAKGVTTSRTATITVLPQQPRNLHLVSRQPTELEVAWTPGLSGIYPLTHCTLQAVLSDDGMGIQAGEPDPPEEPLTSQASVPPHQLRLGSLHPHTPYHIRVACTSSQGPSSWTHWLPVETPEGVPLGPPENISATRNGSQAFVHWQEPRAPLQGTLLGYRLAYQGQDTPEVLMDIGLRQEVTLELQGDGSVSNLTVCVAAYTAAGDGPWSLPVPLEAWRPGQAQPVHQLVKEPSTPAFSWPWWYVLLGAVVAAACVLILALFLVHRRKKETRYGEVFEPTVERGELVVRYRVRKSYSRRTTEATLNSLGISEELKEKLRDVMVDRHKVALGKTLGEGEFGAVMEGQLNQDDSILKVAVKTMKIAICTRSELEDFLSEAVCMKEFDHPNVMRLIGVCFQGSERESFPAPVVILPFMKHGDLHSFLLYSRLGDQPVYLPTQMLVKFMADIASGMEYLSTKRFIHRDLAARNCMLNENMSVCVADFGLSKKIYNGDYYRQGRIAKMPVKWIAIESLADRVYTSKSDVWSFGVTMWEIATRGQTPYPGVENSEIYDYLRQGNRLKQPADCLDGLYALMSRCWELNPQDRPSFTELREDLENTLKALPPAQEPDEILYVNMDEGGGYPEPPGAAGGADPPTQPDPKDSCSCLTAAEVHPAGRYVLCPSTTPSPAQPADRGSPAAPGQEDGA

CAMK2B = CAMK2B (Homo sapiens, UniProt Q13554); experiment: ProQinase radiometric kinase panel; settings: mean of 2 exp.
CDK1/CycE1 = CDK1/CycE1 (Homo sapiens, UniProt P06493); experiment: ProQinase radiometric kinase panel; settings: mean of 2 exp.
Sequence of CDK1/CycE1 (P06493 whole entry): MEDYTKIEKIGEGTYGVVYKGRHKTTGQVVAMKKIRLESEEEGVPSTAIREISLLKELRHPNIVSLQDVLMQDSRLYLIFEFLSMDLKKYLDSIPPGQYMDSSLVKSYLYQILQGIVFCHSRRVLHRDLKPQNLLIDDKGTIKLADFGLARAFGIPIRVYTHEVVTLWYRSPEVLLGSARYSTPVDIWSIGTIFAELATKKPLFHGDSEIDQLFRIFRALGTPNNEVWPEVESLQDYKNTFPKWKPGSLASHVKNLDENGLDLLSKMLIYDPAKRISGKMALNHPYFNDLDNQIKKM
Sequence of CDK1/CycE1 (P24864 whole entry partner): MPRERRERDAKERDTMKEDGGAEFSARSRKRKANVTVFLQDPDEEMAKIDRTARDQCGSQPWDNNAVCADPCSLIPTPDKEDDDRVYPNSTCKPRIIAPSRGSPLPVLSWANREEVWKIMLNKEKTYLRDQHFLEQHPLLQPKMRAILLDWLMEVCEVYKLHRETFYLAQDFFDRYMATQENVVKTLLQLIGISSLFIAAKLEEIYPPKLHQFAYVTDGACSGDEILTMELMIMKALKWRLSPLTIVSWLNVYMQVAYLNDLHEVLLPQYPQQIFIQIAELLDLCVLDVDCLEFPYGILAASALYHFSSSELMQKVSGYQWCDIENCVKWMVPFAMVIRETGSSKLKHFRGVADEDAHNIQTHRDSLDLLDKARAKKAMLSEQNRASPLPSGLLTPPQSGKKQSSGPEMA

CDK4/CycD1 = CDK4/CycD1 (Homo sapiens, UniProt P11802); experiment: ProQinase radiometric kinase panel; settings: mean of 2 exp.
CDK4/CycD3 = CDK4/CycD3 (Homo sapiens, UniProt P11802); experiment: ProQinase radiometric kinase panel; settings: mean of 2 exp.
CDK8/CycC = CDK8/CycC (Homo sapiens, UniProt P49336); experiment: ProQinase radiometric kinase panel; settings: mean of 2 exp.
CK1-delta = CK1-delta (Homo sapiens, UniProt P48730); experiment: ProQinase radiometric kinase panel; settings: mean of 2 exp.
CSF1-R = CSF1-R (Homo sapiens, UniProt P07333); experiment: ProQinase radiometric kinase panel; settings: mean of 2 exp.
DAPK2 = DAPK2 (Homo sapiens, UniProt Q9UIK4); experiment: ProQinase radiometric kinase panel; settings: mean of 2 exp.
EPHA5 = EPHA5 (Homo sapiens, UniProt P54756); experiment: ProQinase radiometric kinase panel; settings: mean of 2 exp.
EPHB1 = EPHB1 (Homo sapiens, UniProt P54762); experiment: ProQinase radiometric kinase panel; settings: mean of 2 exp.
FES = FES (Homo sapiens, UniProt P07332); experiment: ProQinase radiometric kinase panel; settings: mean of 2 exp.
FGF-R3 = FGF-R3 (Homo sapiens, UniProt P22607); experiment: ProQinase radiometric kinase panel; settings: mean of 2 exp.
FLT3 = FLT3 (Homo sapiens, UniProt P36888); experiment: ProQinase radiometric kinase panel; settings: mean of 2 exp.
IRAK1 = IRAK1 (Homo sapiens, UniProt P51617); experiment: ProQinase radiometric kinase panel; settings: mean of 2 exp.
JAK2 = JAK2 (Homo sapiens, UniProt O60674); experiment: ProQinase radiometric kinase panel; settings: mean of 2 exp.
JAK3 = JAK3 (Homo sapiens, UniProt P52333); experiment: ProQinase radiometric kinase panel; settings: mean of 2 exp.
Sequence of JAK3 (P52333 whole entry): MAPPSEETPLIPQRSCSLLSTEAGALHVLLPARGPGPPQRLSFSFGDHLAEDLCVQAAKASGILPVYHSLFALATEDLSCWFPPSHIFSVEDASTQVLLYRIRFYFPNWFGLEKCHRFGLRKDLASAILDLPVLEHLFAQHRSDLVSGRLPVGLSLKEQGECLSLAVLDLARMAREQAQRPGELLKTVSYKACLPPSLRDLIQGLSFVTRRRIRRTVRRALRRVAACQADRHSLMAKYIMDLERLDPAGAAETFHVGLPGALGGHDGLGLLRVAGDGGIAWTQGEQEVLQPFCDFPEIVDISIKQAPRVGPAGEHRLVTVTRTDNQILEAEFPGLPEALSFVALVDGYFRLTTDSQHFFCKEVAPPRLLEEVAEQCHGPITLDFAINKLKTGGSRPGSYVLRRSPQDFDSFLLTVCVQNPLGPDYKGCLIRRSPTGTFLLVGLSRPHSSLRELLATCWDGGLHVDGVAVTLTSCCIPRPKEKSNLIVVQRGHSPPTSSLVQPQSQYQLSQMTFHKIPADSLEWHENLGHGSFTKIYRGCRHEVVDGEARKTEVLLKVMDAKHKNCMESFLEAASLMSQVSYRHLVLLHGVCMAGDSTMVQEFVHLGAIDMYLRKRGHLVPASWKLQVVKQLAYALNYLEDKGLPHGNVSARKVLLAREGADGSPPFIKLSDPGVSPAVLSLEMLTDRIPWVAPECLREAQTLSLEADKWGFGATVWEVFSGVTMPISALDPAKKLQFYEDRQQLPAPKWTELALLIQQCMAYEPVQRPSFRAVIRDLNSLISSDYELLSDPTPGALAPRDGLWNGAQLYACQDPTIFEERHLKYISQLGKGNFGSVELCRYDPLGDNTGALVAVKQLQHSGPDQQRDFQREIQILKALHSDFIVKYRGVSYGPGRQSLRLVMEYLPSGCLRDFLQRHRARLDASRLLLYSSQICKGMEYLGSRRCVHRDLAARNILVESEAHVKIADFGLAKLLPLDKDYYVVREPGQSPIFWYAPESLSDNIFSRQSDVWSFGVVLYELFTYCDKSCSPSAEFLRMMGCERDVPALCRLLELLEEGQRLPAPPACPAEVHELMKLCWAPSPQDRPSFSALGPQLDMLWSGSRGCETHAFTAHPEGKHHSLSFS

LCK = LCK (Homo sapiens, UniProt P06239); experiment: ProQinase radiometric kinase panel; settings: mean of 2 exp.
Protocol: Gini coefficients were calculated and the Lorenz curve (Fig 3B) was plotted by applying the Microsoft Excel spreadsheet provided by Graczyk [44].
radiometric protein kinase assays.

LIMK2 = LIMK2 (Homo sapiens, UniProt P53671); experiment: ProQinase radiometric kinase panel; settings: mean of 2 exp.
MAP3K10 = MAP3K10 (Homo sapiens, UniProt Q02779); experiment: ProQinase radiometric kinase panel; settings: mean of 2 exp.
Sequence of MAP3K10 (Q02779 whole entry): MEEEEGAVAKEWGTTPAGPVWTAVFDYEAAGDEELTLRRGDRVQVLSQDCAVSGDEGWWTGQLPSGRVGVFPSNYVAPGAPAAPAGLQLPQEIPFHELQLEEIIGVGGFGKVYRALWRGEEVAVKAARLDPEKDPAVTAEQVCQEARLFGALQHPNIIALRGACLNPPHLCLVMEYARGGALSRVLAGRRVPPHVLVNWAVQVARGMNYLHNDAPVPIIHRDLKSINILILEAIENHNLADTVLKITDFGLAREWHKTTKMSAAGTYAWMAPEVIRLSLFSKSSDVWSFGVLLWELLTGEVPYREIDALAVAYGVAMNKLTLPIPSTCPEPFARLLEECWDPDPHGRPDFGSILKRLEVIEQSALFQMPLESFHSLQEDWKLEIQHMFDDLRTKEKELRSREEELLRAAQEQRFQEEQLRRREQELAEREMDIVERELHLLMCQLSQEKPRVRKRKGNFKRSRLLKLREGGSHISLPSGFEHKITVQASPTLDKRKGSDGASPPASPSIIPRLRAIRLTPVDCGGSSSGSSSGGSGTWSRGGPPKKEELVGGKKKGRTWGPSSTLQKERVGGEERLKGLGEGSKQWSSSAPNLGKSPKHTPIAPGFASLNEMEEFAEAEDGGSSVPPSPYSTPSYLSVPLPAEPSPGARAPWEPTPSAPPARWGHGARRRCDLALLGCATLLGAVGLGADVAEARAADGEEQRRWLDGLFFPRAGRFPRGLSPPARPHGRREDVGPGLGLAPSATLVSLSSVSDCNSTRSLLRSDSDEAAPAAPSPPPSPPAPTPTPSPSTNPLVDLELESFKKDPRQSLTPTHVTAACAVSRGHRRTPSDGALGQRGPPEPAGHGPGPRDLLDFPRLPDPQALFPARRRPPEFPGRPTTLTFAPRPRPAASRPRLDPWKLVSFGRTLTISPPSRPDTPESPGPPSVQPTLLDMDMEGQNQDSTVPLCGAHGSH

MAPKAPK5 = MAPKAPK5 (Homo sapiens, UniProt Q8IW41); experiment: ProQinase radiometric kinase panel; settings: mean of 2 exp.
MYLK = MYLK (Homo sapiens, UniProt Q15746); experiment: ProQinase radiometric kinase panel; settings: mean of 2 exp.
NLK = NLK (Homo sapiens, UniProt Q9UBE8); experiment: ProQinase radiometric kinase panel; settings: mean of 2 exp.
p38-alpha = p38-alpha (Homo sapiens, UniProt Q16539); experiment: ProQinase radiometric kinase panel; settings: mean of 2 exp.
p38-gamma = p38-gamma (Homo sapiens, UniProt P53778); experiment: ProQinase radiometric kinase panel; settings: mean of 2 exp.
Sequence of p38-gamma (P53778 whole entry): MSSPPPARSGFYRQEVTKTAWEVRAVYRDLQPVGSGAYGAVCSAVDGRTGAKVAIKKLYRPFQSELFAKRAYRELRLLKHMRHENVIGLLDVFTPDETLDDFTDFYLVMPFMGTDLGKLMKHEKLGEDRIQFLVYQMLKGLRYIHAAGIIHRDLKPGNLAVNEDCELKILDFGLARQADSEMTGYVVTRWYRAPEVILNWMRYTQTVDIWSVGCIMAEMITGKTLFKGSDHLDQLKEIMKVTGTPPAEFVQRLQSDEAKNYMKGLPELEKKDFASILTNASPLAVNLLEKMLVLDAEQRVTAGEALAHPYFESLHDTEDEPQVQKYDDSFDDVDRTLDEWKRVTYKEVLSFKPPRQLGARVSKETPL

PAK6 = PAK6 (Homo sapiens, UniProt Q9NQU5); experiment: ProQinase radiometric kinase panel; settings: mean of 2 exp.
CDK16/CycY = CDK16/CycY (Homo sapiens, UniProt Q00536); experiment: ProQinase radiometric kinase panel; settings: mean of 2 exp.
PDGFR-alpha = PDGFR-alpha (Homo sapiens, UniProt P16234); experiment: ProQinase radiometric kinase panel; settings: mean of 2 exp.
PKC-alpha = PKC-alpha (Homo sapiens, UniProt P17252); experiment: ProQinase radiometric kinase panel; settings: mean of 2 exp.
PKC-eta = PKC-eta (Homo sapiens, UniProt P24723); experiment: ProQinase radiometric kinase panel; settings: mean of 2 exp.
PKC-iota = PKC-iota (Homo sapiens, UniProt P41743); experiment: ProQinase radiometric kinase panel; settings: mean of 2 exp.
SAK = SAK (Homo sapiens, UniProt O00444); experiment: ProQinase radiometric kinase panel; settings: mean of 2 exp.
TGFB-R1 = TGFB-R1 (Homo sapiens, UniProt P36897); experiment: ProQinase radiometric kinase panel; settings: mean of 2 exp.
TLK1 = TLK1 (Homo sapiens, UniProt Q9UKI8); experiment: ProQinase radiometric kinase panel; settings: mean of 2 exp.
TYRO3 = TYRO3 (Homo sapiens, UniProt Q06418); experiment: ProQinase radiometric kinase panel; settings: mean of 2 exp.

Sequence of ACK1 (Q07912 whole entry): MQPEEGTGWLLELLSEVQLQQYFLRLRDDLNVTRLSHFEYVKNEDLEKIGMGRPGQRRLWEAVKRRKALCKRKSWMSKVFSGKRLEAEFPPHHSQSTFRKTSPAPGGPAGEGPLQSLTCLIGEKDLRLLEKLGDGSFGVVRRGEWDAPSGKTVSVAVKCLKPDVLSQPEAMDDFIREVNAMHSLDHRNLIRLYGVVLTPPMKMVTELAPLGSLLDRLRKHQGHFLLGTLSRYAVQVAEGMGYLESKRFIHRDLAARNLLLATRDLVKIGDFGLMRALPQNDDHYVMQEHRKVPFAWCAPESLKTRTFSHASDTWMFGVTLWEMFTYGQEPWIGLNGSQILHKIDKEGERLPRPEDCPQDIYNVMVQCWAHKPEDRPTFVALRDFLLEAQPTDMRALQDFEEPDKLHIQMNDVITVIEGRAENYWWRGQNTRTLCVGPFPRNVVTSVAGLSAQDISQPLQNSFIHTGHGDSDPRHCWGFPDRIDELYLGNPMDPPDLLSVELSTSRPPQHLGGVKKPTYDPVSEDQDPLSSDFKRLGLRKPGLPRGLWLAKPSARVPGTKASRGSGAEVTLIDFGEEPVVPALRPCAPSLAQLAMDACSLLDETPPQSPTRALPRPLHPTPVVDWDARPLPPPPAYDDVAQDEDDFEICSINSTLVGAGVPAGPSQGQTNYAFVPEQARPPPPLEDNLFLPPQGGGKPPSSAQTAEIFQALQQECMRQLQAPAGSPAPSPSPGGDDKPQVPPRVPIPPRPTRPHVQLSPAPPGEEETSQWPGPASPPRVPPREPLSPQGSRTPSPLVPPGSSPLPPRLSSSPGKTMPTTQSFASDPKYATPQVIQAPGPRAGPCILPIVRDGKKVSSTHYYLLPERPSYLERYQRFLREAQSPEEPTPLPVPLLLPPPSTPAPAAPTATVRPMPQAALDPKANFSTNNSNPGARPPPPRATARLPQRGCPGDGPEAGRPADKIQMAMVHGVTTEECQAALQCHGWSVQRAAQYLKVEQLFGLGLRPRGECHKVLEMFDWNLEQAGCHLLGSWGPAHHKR

COc1ccc2c3ccnc(Cl)c3n(CC#N)c2c1 [AnnH75]
viability at 3 days, 1 µM (Cell viability XTT assay; PC12, 1 μM): 94% | viability at 3 days, 3 µM (Cell viability XTT assay; PC12, 3 μM): 100% | viability at 3 days, 10 µM (Cell viability XTT assay; PC12, 10 μM): 95% | cytotoxicity (PC12 cells): minimal cytotoxicity | residual activity at 1 µM, Mean (ACK1): 97 % of control | residual activity at 1 µM, Mean (Aurora-B): 104 % of control | residual activity at 1 µM, Mean (AXL): 95 % of control | residual activity at 1 µM, Mean (CAMK2B): 92 % of control | residual activity at 1 µM, Mean (CDK1/CycE1): 93 % of control | residual activity at 1 µM, Mean (CDK4/CycD1): 100 % of control | residual activity at 1 µM, Mean (CDK4/CycD3): 89 % of control | residual activity at 1 µM, Mean (CDK8/CycC): 18 % of control | residual activity at 1 µM, Mean (CK1-delta): 71 % of control | residual activity at 1 µM, Mean (CSF1-R): 106 % of control | residual activity at 1 µM, Mean (DAPK2): 97 % of control | residual activity at 1 µM, Mean (EPHA5): 84 % of control | residual activity at 1 µM, Mean (EPHB1): 89 % of control | residual activity at 1 µM, Mean (FES): 93 % of control | residual activity at 1 µM, Mean (FGF-R3): 107 % of control | residual activity at 1 µM, Mean (FLT3): 70 % of control | residual activity at 1 µM, Mean (IRAK1): 95 % of control | residual activity at 1 µM, Mean (JAK2): 99 % of control | residual activity at 1 µM, Mean (JAK3): 101 % of control | residual activity at 1 µM, Mean (LCK): 91 % of control | residual activity at 1 µM, Mean (LIMK2): 94 % of control | residual activity at 1 µM, Mean (MAP3K10): 91 % of control | residual activity at 1 µM, Mean (MAPKAPK5): 89 % of control | residual activity at 1 µM, Mean (MYLK): 92 % of control | residual activity at 1 µM, Mean (NLK): 92 % of control | residual activity at 1 µM, Mean (p38-alpha): 86 % of control | residual activity at 1 µM, Mean (p38-gamma): 86 % of control | residual activity at 1 µM, Mean (PAK6): 93 % of control | residual activity at 1 µM, Mean (CDK16/CycY): 90 % of control | residual activity at 1 µM, Mean (PDGFR-alpha): 102 % of control | residual activity at 1 µM, Mean (PKC-alpha): 111 % of control | residual activity at 1 µM, Mean (PKC-eta): 79 % of control | residual activity at 1 µM, Mean (PKC-iota): 102 % of control | residual activity at 1 µM, Mean (SAK): 112 % of control | residual activity at 1 µM, Mean (TGFB-R1): 104 % of control | residual activity at 1 µM, Mean (TLK1): 91 % of control | residual activity at 1 µM, Mean (TYRO3): 93 % of control

From publication PMC4508061, “Selectivity Profiling and Biological Activity of Novel β-Carbolines as Potent and Selective DYRK1 Kinase Inhibitors” (PLoS ONE, 2015)
